According to US20070275425A1, “Device and method for analysis of a metabolic malady” (priority 2004, published 2007):

What was measured:
[1] = tested on: lipid bodies in neutrophil cells of ZDF rats; assay: Lipid bodies per neutrophil cell of leukocyte samples (SEM) from obese ZDF rats treated with anti-diabetic drug; format: in vivo, rat; conditions: 10 mg/kg oral gavage five times a week for 20 days
Description: (§1) Whole blood samples were obtained from a group of four obese ZDF rats treated with an anti-diabetic drug, Rosiglitazone (10 mg/kg), administered by oral gavage five times a week for 20 days and a group of four untreated obese ZDF rats induced with a saline solution administered by oral gavage five times a week for 20 days.
A whole blood sample was collected in tubes including a solution of heparin. One hour after drawing the whole blood sample from each rat, approximately 75 microliters of whole blood was mixed with 600 microliters of ddH2O and incubated at a temperature of approximately 25° C. for approximately 30 seconds. Then 75 microliters of 10×PBS was added.
Following incubation, the sample was centrifuged at a speed of approximately 1200 rpm for approximately five minutes. Thereafter, resulting supernatant was removed from the leukocyte sample. Approximately 400 microliters of PBS including 0.89 mM calcium and 0.49 mM magnesium was added to the leukocyte sample. The sample was centrifuged again at a speed of approximately 1200 rpm for approximately five minutes. Thereafter, resulting supernatant was removed from the leukocyte sample. Approximately 400 microliters of PBS including 0.89 mM calcium and 0.49 mM magnesium was added to the leukocyte sample. […]

[2] = Fasting glucose test of treated ZDF rats; format: in vivo, rat; conditions: obese ZDF rats, 10 mg/kg oral gavage five times a week for 20 days; untreated group 242.25 (SD 14.58); treated SD 14.29
Description: as §1
The values of the average number of lipid bodies and average lipid body area correspond to results of a fasting glucose test of the untreated and treated subjects.

CN(CCOc1ccc(CC2SC(=O)NC2=O)cc1)c1ccccn1 (stereo not drawn) [Rosiglitazone]
average lipid body area per neutrophil cell of a leukocyte sample ([1]; untreated group 1.04 (SD 0.1), treated SD 0.06): approximately 0.65 μm^2
average number of lipid bodies per neutrophil cell of a leukocyte sample ([1]; untreated group 7.03 (SD 0.83), treated SD 0.24): approximately 4.09
fasting glucose [2]: 110.13 mg/dL
